This assay has as its target Peroxisome proliferator-activated receptor alpha (Homo sapiens) (UniProt Q07869). The assay is described as follows: Agonist activity at human PPARalpha expressed in human MCF7 cells coexpressing TIF2 by luciferase reporter gene assay.
Chain of Peroxisome proliferator-activated receptor alpha (Homo sapiens) (Q07869 whole entry, looked up): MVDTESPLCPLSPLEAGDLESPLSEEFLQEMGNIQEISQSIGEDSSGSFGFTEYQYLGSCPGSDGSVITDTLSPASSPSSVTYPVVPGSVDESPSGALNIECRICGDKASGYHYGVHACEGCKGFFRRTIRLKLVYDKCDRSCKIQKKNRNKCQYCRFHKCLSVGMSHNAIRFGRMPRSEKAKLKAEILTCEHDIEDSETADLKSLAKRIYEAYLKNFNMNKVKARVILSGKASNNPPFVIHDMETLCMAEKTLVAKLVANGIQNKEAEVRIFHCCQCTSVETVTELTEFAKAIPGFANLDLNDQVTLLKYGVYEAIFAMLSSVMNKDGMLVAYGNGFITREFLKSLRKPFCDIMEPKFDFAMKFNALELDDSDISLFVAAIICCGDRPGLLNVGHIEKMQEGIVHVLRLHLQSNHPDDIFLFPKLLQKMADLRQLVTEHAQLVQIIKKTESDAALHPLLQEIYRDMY
As to `CCCCCCCC/C=C\CCCCCCCCNC(=O)c1nn(-c2ccc(Cl)cc2Cl)c(-c2ccc(Cl)cc2)c1C`, the EC50 (usually the midpoint of the concentration-response curve) was 0.467 µM. `CCCCCCCC/C=C\CCCCCCCCNC(=O)c1cc(-c2ccc(Cl)cc2)n(-c2ccc(Cl)cc2Cl)n1` registered an EC50 of 0.223 µM. Next, `CCCCCCCC/C=C\CCCCCCCCNC(=O)c1cc(-c2ccc(Cl)cc2)n(-c2ccc(Cl)cc2)n1`: 0.524 µM; `CCCCCCCCCCCCCCCCNC(=O)c1nn(-c2ccc(Cl)cc2Cl)c(-c2ccc(Cl)cc2)c1C`: over 10 µM; `CCCCCCCCCCCCCCCCNC(=O)c1cc(-c2ccc(Cl)cc2)n(-c2ccc(Cl)cc2Cl)n1`: over 10 µM. With `CCCCCCCC/C=C\CCCCCCCCNC(=O)c1cc(-c2ccc(Cl)cc2)n(-c2ccccc2)n1` the figure was 0.183 µM; with `CCCCCCCCCCCCCCCCNC(=O)c1cc(-c2ccc(Cl)cc2)n(-c2ccccc2)n1`, over 10 µM.

Consider `CCCCCCCCCCCCCCCCNC(=O)c1cc(-c2ccc(Cl)cc2)n(-c2ccc(Cl)cc2)n1`, for which the EC50 was over 10 µM.

The values above are taken from BindingDB's records for doi:10.1016/j.bmc.2008.10.023 (Polymer Functionalization Group (Ictp, Csic), 2008).
